Patent US20060030603A1, “Novel aryl urea analogs and use thereof as antibacterial agents” (priority 2004, published 2006)
≈ marks a conversion by molar mass, not a printed value. Where two headings read alike, the source gives them in different places.

Legend:
S. aureus ATCC 13709 = experiment: MIC assay, S. aureus; format: cell-based
Protocol: (§1) In vitro structure/activity relationship (“SAR”) tests were performed according to the following procedure: MIC assays were carried out in a 150 μL volume in duplicate in 96-well clear flat-bottom plates. The bacterial suspension from an overnight culture growth in the appropriate medium was added to a solution of test compound in 0.5% DMSO in water. Final bacterial inoculum was approximate 10^3-10^4 CFU/well. The percentage growth of the bacteria in the test wells relative to that observed for a control well containing no compound was determined by measuring absorbance at 595 nm (A595) after 20-24 h at 37° C. […] The bacterial strains used for the assays include S. aureus ATCC 13709, S. pyogenes ATCC 49399, E. faecalis ATCC 29212, E. faecium ATCC 6569, E. coli ATCC 25922, K. pneumoniae ATCC 13383, P. vulgaris ATCC 8427, P. aeruginosa ATCC 25416. The results of the in vitro SAR tests are in Tables 1-3.

S. pyogenes ATCC 49399 = experiment: MIC assay, S. pyogenes; format: cell-based; conditions: Streptococcus pyogenes, ATCC49399; read-out: MIC S. pyogenes ATCC 49399
Protocol: as §1

K. pneumoniae ATCC 13383 = experiment: MIC assay, K. pneumoniae; format: cell-based; conditions: Klebsiella pneumoniae, ATCC13383; read-out: MIC K. pneumoniae ATCC 13383
Protocol: as §1

E. faecium ATCC 6569 = experiment: MIC assay, E. faecium; format: cell-based; conditions: Enterococcus faecium, ATCC6569; read-out: MIC E. faecium ATCC 6569
Protocol: as §1

E. coli ATCC 25922 = experiment: MIC assay, E. coli; format: cell-based; conditions: Escherichia coli, ATCC25922; read-out: MIC E. coli ATCC 25922
Protocol: as §1

P. aeruginosa ATCC 25416 = experiment: MIC assay, P. aeruginosa; format: cell-based; conditions: Pseudomonas aeruginosa, ATCC25416; read-out: MIC P. aeruginosa ATCC 25416
Protocol: as §1

P. vulgaris ATCC 8427 = experiment: MIC assay, P. vulgaris; format: cell-based; conditions: Proteus vulgaris, ATCC8427; read-out: MIC P. vulgaris ATCC 8427
Protocol: as §1

E. faecalis ATCC 29212 = experiment: MIC assay, E. faecalis; format: cell-based; conditions: Enterococcus faecalis, ATCC29212; read-out: MIC E. faecalis ATCC 29212
Protocol: as §1

S. aureus (ATCC 13709) = experiment: Mouse Protection Assay (lethal murine model of bacterial infection); format: in vivo, ICR-CD-1 female mice; conditions: 1 × 2 mg/Kg, positive control, 1 h and 3 h post infection, one week
Protocol: The in vivo tests were preformed according to the following procedure:
Mouse Protection Assay: 10 mice/dose group (ICR-CD-1 female mice 18-20 grams, Charles River) were infected with a lethal dose (10^6 CFU/mouse) of S. aureus (ATCC 13709) suspended in 7.5% hog Gastric Mucin IP. The infected animals were treated at 1 h and 3 h post infection with either compound 12e (lactate salt) from 37 mg/kg down to 2.3 mg/kg or compound 14b (HCl salt) from 75 mg/kg down to 2.3 mg/kg (0.1 mL/mouse). The positive control drug was Vancomycin (Eli Lilly) 1 mg/kg.

[1] = Table 1, thiourea/urea analogs, acetate salts
[2] = Staphylococcus aureus, ATCC13709, read-out: MIC S. aureus
[3] = Table 2, benzylamino group modified analogs
[4] = Table 2, benzylamino group modified analogs, read-out: MIC S. aureus

Row | Compound | MIC S. aureus (S. aureus ATCC 13709; [1]) | MIC S. aureus (S. aureus ATCC 13709; [3]) | further results
1 | Fc1ccccc1NC(=S)NCCCNCc1cc(Br)cc(Br)c1 [8a] | 25 to 50 µM |  | 
2 | COc1ccccc1NC(=S)NCCCNCc1cc(Br)cc(Br)c1 [8c] |  |  | MIC (S. aureus ATCC 13709; Table 1, thiourea/urea analogs, acetate salts, read-out: MIC S. aureus): >100 µM
3 | CSc1ccccc1NC(=S)NCCCNCc1cc(Br)cc(Br)c1 [8d] | 50 to 100 µM |  | 
4 | Fc1ccc(NC(=S)NCCCNCc2cc(Br)cc(Br)c2)c(F)c1F [8e] | 6 to 12 µM |  | 
5 | Fc1cccc(NC(=S)NCCCNCc2cc(Br)cc(Br)c2)c1 [8f] | 12 to 25 µM |  | 
6 | S=C(NCCCNCc1cc(Br)cc(Br)c1)Nc1cccc(Cl)c1 [8g] | 6 to 12 µM |  | 
7 | S=C(NCCCNCc1cc(Br)cc(Br)c1)Nc1cccc(Br)c1 [8h] | 6 to 12 µM |  | 
8 | FC(F)(F)c1cccc(NC(=S)NCCCNCc2cc(Br)cc(Br)c2)c1 [8i] | 6 to 12 µM |  | 
9 | COc1cccc(NC(=S)NCCCNCc2cc(Br)cc(Br)c2)c1 [8j] | 25 to 50 µM |  | 
10 | S=C(NCCCNCc1cc(Br)cc(Br)c1)Nc1ccc(Cl)c(Cl)c1 [8k, 1-[3-(3,5-Dibromo-benzylamino)-propyl]-3-(3,4-dichloro-phenyl)-thiourea] |  |  | MIC (S. aureus ATCC 13709; [2]): 3 to 6 µM (≈ 1.58 to 3.16 µg/mL)
11 | Fc1ccc(NC(=S)NCCCNCc2cc(Br)cc(Br)c2)cc1 [8l] | 12 to 25 µM |  | 
12 | S=C(NCCCNCc1cc(Br)cc(Br)c1)Nc1ccc(Cl)cc1 [8m] | 6 to 12 µM |  | 
13 | S=C(NCCCNCc1cc(Br)cc(Br)c1)Nc1ccc(Br)cc1 [8n] | 12 to 25 µM |  | 
14 | S=C(NCCCNCc1cc(Br)cc(Br)c1)Nc1ccc(I)cc1 [8o] | 12 to 25 µM |  | 
15 | FC(F)(F)c1ccc(NC(=S)NCCCNCc2cc(Br)cc(Br)c2)cc1 [8p] | 6 to 12 µM |  | 
16 | O=[N+]([O-])c1ccc(NC(=S)NCCCNCc2cc(Br)cc(Br)c2)cc1 [8q] | 12 to 25 µM |  | 
17 | Cc1ccc(NC(=S)NCCCNCc2cc(Br)cc(Br)c2)cc1 [8r] | 12 to 25 µM |  | 
18 | N#Cc1ccc(NC(=S)NCCCNCc2cc(Br)cc(Br)c2)cc1 [8s] | 25 to 50 µM |  | 
19 | COc1ccc(NC(=S)NCCCNCc2cc(Br)cc(Br)c2)cc1 [8t] | 25 to 50 µM |  | 
20 | COc1ccccc1NC(=O)NCCCNCc1cc(Br)cc(Br)c1 [9a] | 25 to 50 µM |  | 
21 | O=C(NCCCNCc1cc(Br)cc(Br)c1)Nc1cccc(C(F)(F)F)c1 [9b] | 6 to 12 µM |  | 
22 | O=C(NCCCNCc1cc(Br)cc(Br)c1)Nc1ccc(Cl)cc1 [9c] | 6 to 12 µM |  | 
23 | O=C(NCCCNCc1cc(Br)cc(Br)c1)Nc1ccc(C(F)(F)F)cc1 [9d, 1-[3-(3,5-Dibromo-benzylamino)-propyl]-3-(4-trifluoromethyl-phenyl)-urea] |  | 3 to 6 µM | MIC (S. aureus ATCC 13709; [2]): 3 to 6 µM (≈ 1.53 to 3.05 µg/mL)

Row | Compound | MIC S. aureus (S. aureus ATCC 13709; [1]) | MIC S. aureus (S. aureus ATCC 13709; [3]) | further results
24 | CSc1ccc(NC(=O)NCCCNCc2cc(Br)cc(Br)c2)cc1 [9e] | 25 to 50 µM |  | 
25 | O=C(NCCCNCc1cc(Br)cc(Br)c1)Nc1ccc(OC(F)(F)F)cc1 [9g] | 6 to 12 µM |  | 
26 | O=C(NCCCNCc1ccccc1OC(F)(F)F)Nc1ccc(C(F)(F)F)cc1 [12b] |  | 12 to 25 µM | 
27 | O=C(NCCCNCc1cccc(-c2ccccc2)c1)Nc1ccc(C(F)(F)F)cc1 [12c] |  | 6 to 12 µM | 
28 | O=C(NCCCNCc1ccc(OC(F)(F)F)cc1)Nc1ccc(C(F)(F)F)cc1 [12d] |  | 3 to 6 µM | 
29 | COc1ccc(-c2ccc(CNCCCNC(=O)Nc3ccc(C(F)(F)F)cc3)cc2)cc1 [12f] |  | 3 to 6 µM | 
30 | COc1ccccc1-c1ccc(CNCCCNC(=O)Nc2ccc(C(F)(F)F)cc2)cc1 [12g] |  | 6 to 12 µM | 
31 | CN(C)c1ccc(CNCCCNC(=O)Nc2ccc(C(F)(F)F)cc2)cc1 [12j] |  | 12 to 25 µM | 
32 | CC(=O)Nc1ccc(CNCCCNC(=O)Nc2ccc(C(F)(F)F)cc2)cc1 [12k] |  |  | MIC (S. aureus ATCC 13709; [4]): >100 µM
33 | O=C(NCCCNCc1cc(Cl)cc(Cl)c1)Nc1ccc(C(F)(F)F)cc1 [12m] |  | 6 to 12 µM | 
34 | O=C(NCCCNCc1cc(F)cc(F)c1)Nc1ccc(C(F)(F)F)cc1 [12n] |  | 50 to 100 µM | 
35 | O=C(NCCCNCc1cc(C(F)(F)F)cc(C(F)(F)F)c1)Nc1ccc(C(F)(F)F)cc1 [12o] |  | 50 to 100 µM | 
36 | COc1cc(CNCCCNC(=O)Nc2ccc(C(F)(F)F)cc2)cc(OC)c1 [12p] |  | 50 to 100 µM | 
37 | O=C(NCCCNCc1ccc(Cl)c(Cl)c1)Nc1ccc(C(F)(F)F)cc1 [12q] |  | 3 to 6 µM | 
38 | O=C(NCCCNCc1cc(Br)cc(Br)c1O)Nc1ccc(C(F)(F)F)cc1 [12r] |  |  | MIC (S. aureus ATCC 13709; [4]): >100 µM
39 | COc1cc(Br)cc(CNCCCNC(=O)Nc2ccc(C(F)(F)F)cc2)c1O [12t] |  | 12 to 25 µM | 
40 | CCOc1ccc(Br)cc1CNCCCNC(=O)Nc1ccc(C(F)(F)F)cc1 [12u] |  | 6 to 12 µM | 
41 | O=C(NCCCNCCCOc1ccc(Br)cc1Br)Nc1ccc(C(F)(F)F)cc1 [14a, 1-{3-[3-(2,4-Dibromo-phenoxy)-propylamino]-propyl}-3-(4-trifluoromethyl-phenyl)-urea] |  |  | MIC (S. aureus ATCC 13709; Staphylococcus aureus, ATCC13709, Table 2, benzylamino group modified analogs, read-out: MIC S. aureus): 3 to 6 µM (≈ 1.66 to 3.32 µg/mL)
42 | O=C(NCCCNCc1ccc(Br)[nH]1)Nc1ccc(C(F)(F)F)cc1 [15e, 1-{3-[(5-bromo-1H-pyrrol-2-ylmethyl)-amino]-propyl}-3-(4-trifluoromethyl-phenyl)-urea] |  |  | MIC (S. aureus ATCC 13709; Staphylococcus aureus, ATCC13709, Table 3, heteroaryl analogs, read-out: MIC S. aureus): 3 to 6 µM (≈ 1.26 to 2.52 µg/mL)
43 | CC(=O)NC[C@H]1CN(c2ccc(N3CCOCC3)c(F)c2)C(=O)O1 [Linezolide, reference compound] |  | 3 to 6 µM | MIC (S. pyogenes ATCC 49399): 1.5 to 3 µM (≈ 0.506 to 1.01 µg/mL); MIC (K. pneumoniae ATCC 13383): > 100 µM; MIC (E. faecium ATCC 6569): > 100 µM; MIC (E. coli ATCC 25922): > 100 µM; MIC (P. aeruginosa ATCC 25416): > 100 µM; MIC (P. vulgaris ATCC 8427): 12 to 25 µM (≈ 4.05 to 8.43 µg/mL); MIC (S. aureus ATCC 13709; Staphylococcus aureus, ATCC13709, Table 1, thiourea/urea analogs, acetate salts, read-out: MIC S. aureus): 3 to 6 µM; MIC (S. aureus ATCC 13709; Staphylococcus aureus, ATCC13709, Table 4, read-out: MIC S. aureus ATCC 13709): 3 to 6 µM (≈ 1.01 to 2.02 µg/mL); MIC (E. faecalis ATCC 29212): 3 to 6 µM (≈ 1.01 to 2.02 µg/mL)
44 | CN[C@H](CC(C)C)C(=O)N[C@H]1C(=O)N[C@@H](CC(N)=O)C(=O)N[C@H]2C(=O)N[C@H]3C(=O)N[C@H](C(=O)N[C@H](C(=O)O)c4cc(O)cc(O)c4-c4cc3ccc4O)[C@H](O)c3ccc(c(Cl)c3)Oc3cc2cc(c3O[C@@H]2O[C@H](CO)[C@@H](O)[C@H](O)[C@H]2O[C@H]2C[C@](C)(N)[C@H](O)[C@H](C)O2)Oc2ccc(cc2Cl)[C@H]1O [Vancomycin, reference compound] |  |  | Mice Alive/Total (S. aureus (ATCC 13709)): 10/10
45 | CN(CCCNC(=O)Nc1ccc(C(F)(F)F)cc1)Cc1cc(Br)cc(Br)c1 [compound 13] |  |  | MIC (S. aureus ATCC 13709; [4]): >100 µM
